System: E. coli in vitro translation reaction
Test: PURExpress in vitro transcription/translation of a GFP reporter
Settings: read-out: half-maximal inhibition (IC50) of translation of a GFP reporter; PURExpress (NEB) protein synthesis system; DNA encoding eGFP; endpoint fluorescence after 4 hours
Method: The PureExpress kit (NEB) was used in accordance with manufacture's protocol to assay for the in-vitro production of GFP. For each sample a 25 uL reaction was performed containing 100 ng DNA or 500 ng RNA template encoding GFP (transcription in this kit is via T7 RNA Polymerase), plus indicated amounts of purified compound dissolved in H2O. Reactions were loaded into a white 384 well plate and production of fluorescent GFP protein was monitored with a Synergy Ht Plate Reader (Bio-tek). Fluorescence reached an endpoint at 4 hours. To produce DNA template, a PCR product of the pT7-GFP gene was amplified (Kapa HiFi Polymerase) and purified by gel electrophoresis followed by gel purification (Qiagen). To produce RNA template, the DNA PCR product was transcribed with the HiScribe T7 High Yield RNA Synthesis kit (NEB), treated with DNasel, and purified by the Monarch RNA Purification Kit (NEB). RNA was quantified by Qubit.
To quantify IC50 values for translation inhibition activity (FIG. 14A), raw fluorescence values were linearly converted to percent activity. […] Graphpad Prism was used to plot a hyperbolic non-linear regression.

## CC[C@H]1OC(=O)[C@H](C)[C@@H](O[C@H]2C[C@@](C)(OC)[C@@H](O)[C@H](C)O2)[C@H](C)[C@@H](O[C@@H]2O[C@H](C)C[C@H](N(C)C)[C@H]2O)[C@](C)(O)C[C@@H](C)C(=O)[C@H](C)[C@@H](O)[C@]1(C)O [erythromycin]
  IC50: 2000 nM

Source: US20250207124A1, “COMPOSITIONS AND METHODS FOR EXPRESSING SYNTHETIC GENETIC ELEMENTS ACROSS DIVERSE MICROORGANISMS” (priority 2022, published 2025)
